From ChEMBL document CHEMBL1201862, “PubChem BioAssay data set” (2004)
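Assay format: 96-well plates, 48-hour exposure. GI50: concentration for 50% inhibition of growth.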 The source made the active and inactive calls. Rule as the data show it: active = GI50 up to about 1.1 µM and inactive = higher.

Columns and labels:
Test in all cases: NCI-60 cell line screen, 48 h
[1] = test system: HT-29
[2] = test system: Malme-3M
[3] = test system: SK-MEL-5
[4] = test system: NCI-H23
[5] = test system: OVCAR-8
[6] = test system: SF-539
[7] = test system: MDA-MB-231
[8] = test system: IGROV-1
[9] = test system: SK-OV-3
[10] = test system: CCRF-CEM
[11] = test system: NCI-H460
[12] = test system: HL-60
[13] = test system: MDA-MB-435
[14] = test system: Hs-578T
[15] = test system: SF-268
[16] = test system: HOP-92
[17] = test system: SNB-19
[18] = test system: 786-0
[19] = test system: SK-MEL-2
[20] = test system: ACHN
[21] = test system: SK-MEL-28
[22] = test system: SW-620
[23] = test system: M14
[24] = test system: LOX IMVI
[25] = test system: DU-145
[26] = test system: T47D
[27] = test system: KM12
[28] = test system: PC-3
[29] = test system: UACC-62
[30] = test system: TK-10
[31] = test system: NCI-H522
[32] = test system: MCF7
[33] = test system: HCT-15
[34] = test system: A549
[35] = test system: OVCAR-4
[36] = test system: A498
[37] = test system: SR
[38] = test system: NCI-H226
[39] = test system: SN12C
[40] = test system: UACC-257
[41] = test system: MDA-N
[42] = test system: OVCAR-5
[43] = test system: MOLT-4
[44] = test system: CAKI-1
[45] = test system: RPMI-8226
[46] = test system: HCT-116
[47] = test system: COLO 205
[48] = test system: NCI/ADR-RES
[49] = test system: SNB-75
[50] = test system: RXF 393
[51] = test system: SF-295
[52] = test system: UO-31
[53] = test system: K562
[54] = test system: U-251
[55] = test system: OVCAR-3
[56] = test system: EKVX

In the case of `COc1ccc2cc3[n+](cc2c1OC)CCc1cc2c(cc1-3)OCO2`, the GI50 [1] is reported as 38.8 µM (inactive), the GI50 [2] is reported as 7.6 µM (inactive) and the GI50 [3] is reported as 4.78 µM (inactive). The GI50 [4] was 7.93 µM (inactive), the GI50 [5] was 16.8 µM (inactive) and the GI50 [6] was 52.2 µM (inactive). For the same molecule, the GI50 [7] was 21.5 µM (inactive), the GI50 [8] was 55.5 µM (inactive) and the GI50 [9] was 78 µM (inactive). The GI50 [10] was 18.4 µM (inactive), the GI50 [11] was 14.9 µM (inactive) and the GI50 [12] was 18.2 µM (inactive). The GI50 [13] was 12.6 µM (inactive), the GI50 [14] was 11.3 µM (inactive) and the GI50 [15] was 6.75 µM (inactive). The GI50 [16] was 24.5 µM (inactive), the GI50 [17] was 5.69 µM (inactive) and the GI50 [18] was 45 µM (inactive). For the same molecule, the GI50 [19] was 23.8 µM (inactive), the GI50 [20] was > 100 µM (inactive) and the GI50 [21] was 14.7 µM (inactive). The GI50 [22] was 55.3 µM (inactive), the GI50 [23] was 39.8 µM (inactive) and the GI50 [24] was 59.6 µM (inactive). The GI50 [25] was 35.7 µM (inactive), the GI50 [26] was 5.26 µM (inactive) and the GI50 [27] was 6.11 µM (inactive). For the same molecule, the GI50 [28] was 20.3 µM (inactive), the GI50 [29] was 16 µM (inactive) and the GI50 [30] was 85.5 µM (inactive).
For `C=C1C(O)C[C@H](OC(C)=O)[C@]2(C)C1C(OC(C)=O)[C@]1(C(C)(C)O)CC(O)C(C)=C1[C@@H](OC(=O)c1ccccc1)C2OC(C)=O` (stereo not given in full), the GI50 [1] was > 10 µM (inactive), the GI50 [31] was > 10 µM (inactive) and the GI50 [32] was > 10 µM (inactive). The GI50 [33] was over 10 µM, the GI50 [34] was > 10 µM (inactive) and the GI50 [3] was > 10 µM (inactive). For the same molecule, the GI50 [4] was > 10 µM (inactive), the GI50 [5] was > 10 µM (inactive) and the GI50 [35] was > 10 µM (inactive). The GI50 [6] was > 10 µM (inactive), the GI50 [36] was > 10 µM (inactive) and the GI50 [7] was > 10 µM (inactive). For the same molecule, the GI50 [37] was > 10 µM (inactive), the GI50 [8] was > 10 µM (inactive) and the GI50 [9] was > 10 µM (inactive). The GI50 [10] was > 10 µM (inactive), the GI50 [38] was > 10 µM (inactive) and the GI50 [11] was > 10 µM (inactive). For the same molecule, the GI50 [12] was > 10 µM (inactive), the GI50 [13] was > 10 µM (inactive) and the GI50 [39] was > 10 µM (inactive). For the same molecule, the GI50 [40] was > 10 µM (inactive), the GI50 [14] was > 10 µM (inactive) and the GI50 [15] was > 10 µM (inactive). The GI50 [16] was > 10 µM (inactive), the GI50 [17] was > 10 µM (inactive) and the GI50 [41] was > 10 µM (inactive). For the same molecule, the GI50 [18] was > 10 µM (inactive), the GI50 [19] was > 10 µM (inactive) and the GI50 [42] was > 10 µM (inactive). The GI50 [20] was > 10 µM (inactive), the GI50 [21] was > 10 µM (inactive) and the GI50 [22] was > 10 µM (inactive). For the same molecule, the GI50 [43] was > 10 µM (inactive), the GI50 [23] was > 10 µM (inactive) and the GI50 [24] was > 10 µM (inactive). The GI50 [44] was > 10 µM (inactive), the GI50 [25] was > 10 µM (inactive) and the GI50 [26] was > 10 µM (inactive). The GI50 [45] was > 10 µM (inactive), the GI50 [27] was > 10 µM (inactive) and the GI50 [46] was > 10 µM (inactive). For the same molecule, the GI50 [47] was > 10 µM (inactive), the GI50 [28] was > 10 µM (inactive) and the GI50 [48] was > 10 µM (inactive). The GI50 [49] was > 10 µM (inactive), the GI50 [50] was > 10 µM (inactive) and the GI50 [51] was > 10 µM (inactive). For the same molecule, the GI50 [52] was > 10 µM (inactive), the GI50 [53] was > 10 µM (inactive) and the GI50 [54] was > 10 µM (inactive). For the same molecule, the GI50 [55] was > 10 µM (inactive), the GI50 [29] was > 10 µM (inactive) and the GI50 [30] was > 10 µM (inactive). The GI50 [56] was > 10 µM (inactive).
